Common to all, as to format: in vitro ADME
Series [1] can be described thus: Stability in simulated intestinal fluid (SIF). Conditions: simulated intestinal fluid with pancreatin, pH 6.8, 37° C., matrix is 100 fold dilution of standard SIF concentration; for SIF t½: 20 μM; for half-life at 20 μM: read-out: SIF t½ (converted).
The next series in a line: Stability in rat plasma. Conditions: both sexes, SD rat plasma, EDTA, 37° C., read-out: t½: Rat Plasma EDTA (converted).
Series [2] in a line: Stability in human fecal homogenate. Conditions: 20% fecal homogenate (supernatant), pH 6.8, 20% human fecal homogenate, anaerobic, 37° C., read-out: t½: Human Feces anaerobic (converted). As to the method: (§1) Centrifuged the homogenate at 2800×g for 15 min. The supernatant is taken out and used for incubations. […] The final test compound concentration was 20 μM.
Series [3] can be described thus: Stability in cynomolgus monkey fecal homogenate. The settings on record: 20% fecal homogenate (supernatant), pH 6.8, 20% cynomolgus monkey fecal homogenate, anaerobic, 37° C., read-out: t½: Monkey Feces anaerobic (converted). The procedure:
as §1

Molecules are shown by their SMILES. Bridge positions count the residues as written; N and C are the ends. Square brackets hold non-standard residues; d marks the D form. Peptide text beside a SMILES is read from it. Trp(7-Me) = Cc1cccc2c(C[C@H](N)C(=O)O)c[nH]c12; 2Nal = N[C@@H](Cc1ccc2ccccc2c1)C(=O)O; AEF = NCCOc1ccc(C[C@H](N)C(=O)O)cc1; Cit = NC(=O)NCCC[C@H](N)C(=O)O; Pen = CC(C)(S)[C@H](N)C(=O)O; αMeK = C[C@](N)(CCCCN)C(=O)O

Protocol for Stability in rat plasma: Peptides of interest (20 μM) were incubated with pre-warmed rat plasma (SD rat, mixed gender pooled, EDTA, filtered through 0.22 μm, BioreclamationIVT) at 37° C. […] Quenched samples were stored at 4° C. until the end of the experiment and centrifuged at 4,000 rpm for 10 minutes. The supernatant were diluted 1:1 with deionized water and analyzed using LC-MS. Percentage remaining at each time point was calculated based on the peak area ratio (analyte over internal standard) relative to the initial level at time zero. Half-lives were calculated by fitting to a first-order exponential decay equation using GraphPad.

As for `CC(=O)NCCCC[C@@H]1NC(=O)[C@H](Cc2c[nH]c3c(C)cccc23)NC(=O)[C@H]([C@@H](C)O)NC(=O)[C@H](CCCCNC(C)=O)NC(=O)[C@@H](NC(C)=O)C(C)(C)SSC(C)(C)[C@@H](C(=O)N[C@@H](Cc2ccc(OCCN)cc2)C(=O)N[C@@H](Cc2ccc3ccccc3c2)C(=O)N[C@@](C)(CCCCN)C(=O)N[C@@H](CCCCNC(C)=O)C(=O)N[C@@H](CC(N)=O)C(=O)N[C@H](CC(C)C)C(N)=O)NC1=O` [compound 330] (Ac-[Pen]K(Ac)T[Trp(7-Me)]K(Ac)[Pen][AEF][2Nal][αMeK]K(Ac)N[dL]-NH2; disulfide 1-6), in series [1], the “SIF t½” value is 24 h. In addition, the half-life at 20 μM (in “Stability in rat plasma”; in series [2]; in series [3]) was more than 24 h throughout.
On to `CC(=O)NCCCC[C@@H]1NC(=O)[C@H](Cc2c[nH]c3c(C)cccc23)NC(=O)[C@H]([C@@H](C)O)NC(=O)[C@H](CCCNC(N)=O)NC(=O)[C@@H](NC(C)=O)C(C)(C)SSC(C)(C)[C@@H](C(=O)N[C@@H](Cc2ccc(OCCN)cc2)C(=O)N[C@@H](Cc2ccc3ccccc3c2)C(=O)N[C@@](C)(CCCCN)C(=O)N[C@@H](CCCCNC(C)=O)C(=O)N[C@@H](CC(N)=O)C(=O)N[C@H](CC(C)C)C(N)=O)NC1=O` [compound 331] (Ac-[Pen][Cit]T[Trp(7-Me)]K(Ac)[Pen][AEF][2Nal][αMeK]K(Ac)N[dL]-NH2; disulfide 1-6), for which the half-life at 20 μM in series [1] is 15 h; in the series “Stability in rat plasma”, more than 24 h; in series [2], more than 24 h; in series [3], more than 24 h.
Regarding `CC(=O)NCCCC[C@@H]1NC(=O)[C@H](Cc2c[nH]c3c(C)cccc23)NC(=O)[C@H]([C@@H](C)O)NC(=O)[C@H](CC(C)C)NC(=O)[C@@H](NC(C)=O)C(C)(C)SSC(C)(C)[C@@H](C(=O)N[C@@H](Cc2ccc(OCCN)cc2)C(=O)N[C@@H](Cc2ccc3ccccc3c2)C(=O)N[C@@](C)(CCCCN)C(=O)N[C@@H](CCCCNC(C)=O)C(=O)N[C@@H](CC(N)=O)C(=O)N[C@H](CC(C)C)C(N)=O)NC1=O` [compound 332] (Ac-[Pen]LT[Trp(7-Me)]K(Ac)[Pen][AEF][2Nal][αMeK]K(Ac)N[dL]-NH2; disulfide 1-6), the “SIF t½” value in series [1] is 24 h. For the same compound, the half-life at 20 μM (in the series “Stability in rat plasma”; in series [2]; in series [3]) was more than 24 h each time.
For the compound `CC(=O)NCCCC[C@@H]1NC(=O)[C@H](Cc2c[nH]c3c(C)cccc23)NC(=O)[C@H]([C@@H](C)O)NC(=O)[C@@H]2CCCN2C(=O)[C@@H](NC(C)=O)C(C)(C)SSC(C)(C)[C@@H](C(=O)N[C@@H](Cc2ccc(OCCN)cc2)C(=O)N[C@@H](Cc2ccc3ccccc3c2)C(=O)N[C@@](C)(CCCCN)C(=O)N[C@@H](CCCCNC(C)=O)C(=O)N[C@@H](CC(N)=O)C(=O)N[C@H](CC(C)C)C(N)=O)NC1=O` [compound 333] (Ac-[Pen]PT[Trp(7-Me)]K(Ac)[Pen][AEF][2Nal][αMeK]K(Ac)N[dL]-NH2; disulfide 1-6), the half-life at 20 μM in series [1] was 22 h; in the series “Stability in rat plasma”, more than 24 h; in series [2], more than 24 h; in series [3], 24 h.
Turning to `CC(=O)NCCCC[C@@H]1NC(=O)[C@H](Cc2c[nH]c3c(C)cccc23)NC(=O)[C@H]([C@@H](C)O)NC(=O)[C@H](CO)NC(=O)[C@@H](NC(C)=O)C(C)(C)SSC(C)(C)[C@@H](C(=O)N[C@@H](Cc2ccc(OCCN)cc2)C(=O)N[C@@H](Cc2ccc3ccccc3c2)C(=O)N[C@@](C)(CCCCN)C(=O)N[C@@H](CCCCNC(C)=O)C(=O)N[C@@H](CC(N)=O)C(=O)N[C@H](CC(C)C)C(N)=O)NC1=O` [compound 334] (Ac-[Pen]ST[Trp(7-Me)]K(Ac)[Pen][AEF][2Nal][αMeK]K(Ac)N[dL]-NH2; disulfide 1-6), the “SIF t½” value in series [1] is 24 h. The half-life at 20 μM (in the series “Stability in rat plasma”; in series [2]; in series [3]) was more than 24 h each time.

The values are drawn from patent US11041000B2, “Peptide inhibitors of interleukin-23 receptor and their use to treat inflammatory diseases” (priority 2019, dated 2021).
